Results: ChEMBL document CHEMBL1125278, “Novel cerebroprotective agents with central nervous system stimulating activity. 2. Synthesis and pharmacology of the 1-(acylamino)-7-hydroxyindan derivatives” (1991)

Tests used:
Type in all cases: functional
Mus musculus [1] = test: Spontaneous movement (SMT) in seconds, was measured after oral administration of 30 mg/kg in mice to test for promoting effects on recovery from coma.
Mus musculus [2] = test: Time of recovery of righting reflux (RRT) in seconds was measured after oral administration of 30 mg/kg in mice for the promotional effect on recovery from coma.
Mus musculus [3] = test: Antihypoxic effect tested by the ratio of survival time (SVT) of test mice to that of control group, dosed orally 30 mg/kg; details: route oral
Mus musculus [4] = test: Antihypoxic effect tested by the ratio of survival time (SVT) of test mice to that of control group, dosed intraperitoneally at 30 mg/kg; details: route intraperitoneal

| SMILES | SMT (Mus musculus [1]) | RRT (Mus musculus [2]) | SVT (Mus musculus [3]) | SVT (Mus musculus [4]) |
| --- | --- | --- | --- | --- |
| COc1cccc(N2CCN(CC(=O)NC3c4c(O)ccc(C)c4CC3(C)C)CC2)c1 (configuration not stated) | 64.7 s | 62.9 s | 97.2% |  |
| Cc1cc(C)c2c(c1O)C(NC(=O)CN1CCN(c3cccc(F)c3)CC1)C(C)(C)C2 (configuration not stated) | 72.3 s | 82.8 s | 122.7% |  |
| Cc1cc(C)c2c(c1O)C(NC(=O)CN1CCCC1)C(C)(C)C2 (configuration not stated) | 66.4 s | 85.8 s |  | 134.2% |
| Cc1cc(C)c2c(c1O)C(NC(=O)CN1CCN(c3cccc(Br)c3)CC1)C(C)(C)C2 (configuration not stated) | 91 s | 81.8 s | 83.2% |  |
| CCC(C)c1cc(C)c2c(c1O)C(NC(=O)CN1CCN(c3cccc(Cl)c3)CC1)C(C)(C)C2 (configuration not stated) | 80.3 s | 99.4 s |  | 147.7% |
| COc1cccc(N2CCN(CC(=O)NC3c4c(O)c(C)cc(C)c4CC3c3ccc(Cl)cc3)CC2)c1 (configuration not stated) | 94.3 s | 80.1 s | 91.7% |  |
| Cc1cc(C)c2c(c1O)C(NC(=O)CN1CCN(c3cc(Cl)ccc3Cl)CC1)C(C)(C)C2 (configuration not stated) | 69.4 s | 73.6 s | 100% |  |
| Cc1cc(C)c2c(c1O)C(NC(=O)CN1CCN(c3ccccc3Cl)CC1)C(C)(C)C2 (configuration not stated) | 77.2 s | 86.5 s | 117.3% |  |
| Cc1ccc(C(=O)NC2CCc3c(C)cc(C)c(O)c32)cc1 (configuration not stated) |  |  |  | 68.8% |
| Cc1cc(C)c2c(c1O)C(NC(=O)CN1CCCCC1)C(C)(C)C2 (configuration not stated) | 84.2 s | 100.7 s |  | 112.7% |
| CCC(C)c1cc(C)c2c(c1O)C(NC(=O)CN1CCN(c3cc(Cl)cc(Cl)c3)CC1)CC2 (configuration not stated) | 100.6 s | 114 s | 113.2% | 139.4% |
| Cc1cc(C)c2c(c1O)C(NCC(=O)N1CCN(c3cccc(Cl)c3)CC1)C(C)(C)C2 (configuration not stated) | 95.2 s | 116.3 s |  | 146.8% |
| Cc1cccc(N2CCN(CC(=O)NC3CCc4c(C)cc(C)c(O)c43)CC2)c1C (configuration not stated) |  |  |  | 134.3% |
| Cc1cc(C)c2c(c1O)C(NC(=O)CN1CCSCC1)C(C)(C)C2 (configuration not stated) | 119.9 s | 110.8 s |  | 100.8% |
| Cc1cc(C)c(N2CCN(CC(=O)NC3c4c(O)c(C)cc(C)c4CC3(C)C)CC2)c(C)c1 (configuration not stated) | 84 s | 87.6 s | 100.3% |  |
| Cc1cc(C)c2c(c1O)C(NC(=O)CCN1CCN(c3cccc(Cl)c3)CC1)C(C)(C)C2 (configuration not stated) | 74 s | 95.4 s |  | 79.5% |
| Cc1cc(C)c2c(c1O)C(NC(=O)CN1CCN(c3cccc(C(F)(F)F)c3)CC1)C(C)(C)C2 (configuration not stated) | 83.7 s | 89.5 s | 107.8% |  |
| Cc1cc(C)c2c(c1O)C(NC(=O)Cn1ccnc1)C(C)(C)C2 (configuration not stated) | 66.4 s | 76.8 s | 71.8% |  |
| CCOc1ccccc1N1CCN(CC(=O)NC2c3c(O)c(C)cc(C)c3CC2(C)C)CC1 (configuration not stated) | 71.8 s | 90.3 s | 130.4% |  |
| Cc1ccc(Cl)cc1N1CCN(CC(=O)NC2c3c(O)c(C)cc(C)c3CC2(C)C)CC1 (configuration not stated) | 74 s | 91.7 s | 103.2% |  |
| Cc1cc(C)c2c(c1O)C(NC(=O)CN1CCCC1C(=O)O)C(C)(C)C2 (configuration not stated) | 150.3 s | 103.3 s | 92.3% |  |
| Cc1ccccc1C1Cc2c(C)cc(C)c(O)c2C1NC(=O)CN1CCN(c2cccc(Cl)c2)CC1 (configuration not stated) | 66 s | 75.1 s | 123.7% |  |

| SMILES | SMT (Mus musculus [1]) | RRT (Mus musculus [2]) | SVT (Mus musculus [3]) | SVT (Mus musculus [4]) |
| --- | --- | --- | --- | --- |
| Cc1cc(C)c2c(c1O)C(NC(=O)CN1CCN(c3ccc([N+](=O)[O-])cc3)CC1)C(C)(C)C2 (configuration not stated) | 90.6 s | 99.5 s | 107.9% |  |
| COc1ccc(N2CCN(CC(=O)NC3c4c(O)c(C)cc(C)c4CC3(C)C)CC2)cc1OC (configuration not stated) | 81 s | 59.5 s | 85.7% |  |
| COc1cccc(N2CCN(CCNC3c4c(O)c(C)cc(C)c4CC3(C)C)CC2)c1 (configuration not stated) | 112.1 s | 110 s |  | 120.8% |
| Cc1cc(C)c2c(c1O)C(NC(=O)CN1CCCC1=O)C(C)(C)C2 (configuration not stated) | 88.8 s | 89.2 s |  | 135.3% |
| COc1cccc(N2CCN(CC(=O)NC3c4c(O)c(C)cc(C)c4CC3c3ccccc3)CC2)c1 (configuration not stated) | 80.6 s | 82 s | 78.3% |  |
| COc1cccc(N2CCN(CC(=O)NC3CCc4c(C)cc(C)c(O)c43)CC2)c1 (configuration not stated) | 54.7 s | 64.2 s | 77.2% |  |
| CCCc1cc(C)c2c(c1O)C(NC(=O)CN1CCN(c3cccc(OC)c3)CC1)C(C)(C)C2 (configuration not stated) | 107.2 s | 114.6 s | 95% |  |
| Cc1cc(C)c2c(c1O)C(NCCN1CCN(c3cccc(Cl)c3)CC1)C(C)(C)C2 (configuration not stated) | 59.9 s | 64.8 s |  | 141.3% |
| Cc1cc(C)c2c(c1O)C(NC(=O)CN1CCN(c3ccccc3F)CC1)C(C)(C)C2 (configuration not stated) | 123.8 s | 89 s | 99.9% |  |
| COc1ccccc1N1CCN(CC(=O)NC2c3c(O)c(C)cc(C)c3CC2(C)C)CC1 (configuration not stated) | 117.3 s | 97.2 s | 94.4% |  |
| COc1cccc(N2CCN(CC(=O)NC3c4c(O)c(C)cc(C)c4CC3Cc3ccccc3)CC2)c1 (configuration not stated) |  |  | 123.1% |  |
| Cc1cc(C)c2c(c1O)C(NC(=O)CN1CCN(c3cc(Cl)cc(Cl)c3)CC1)C(C)(C)C2 (configuration not stated) | 71.1 s | 76.1 s | 106.4% |  |
| Cc1ccc(N2CCN(CC(=O)NC3c4c(O)c(C)cc(C)c4CC3(C)C)CC2)cc1Cl (configuration not stated) | 117.7 s | 103.9 s | 90.5% |  |
| Cc1cc(C)c2c(c1O)C(NC(=O)CN1CCN(c3cccc(Cl)c3)CC1)C(c1ccc(Cl)cc1)C2 (configuration not stated) | 99.4 s | 98 s | 81.3% |  |
| Cc1cc(C)c2c(c1O)C(NC(=O)CN1CCOCC1)C(C)(C)C2 (configuration not stated) | 92.2 s | 106.9 s |  | 104.3% |
| COc1cccc(N2CCN(CCC(=O)NC3c4c(O)c(C)cc(C)c4CC3(C)C)CC2)c1 (configuration not stated) | 92.4 s | 98 s | 91.8% |  |
| COc1cccc(N2CCN(C(=O)CNC3c4c(O)c(C)cc(C)c4CC3(C)C)CC2)c1 (configuration not stated) | 111 s | 84 s |  | 97.7% |
| COc1cccc(N2CCN(CC(=O)NC3c4c(c(C)cc(C)c4OC)CC3(C)C)CC2)c1 (configuration not stated) | 61.8 s | 72.6 s | 93.4% |  |
| COc1ccc(N2CCN(CC(=O)NC3c4c(O)c(C)cc(C)c4CC3(C)C)CC2)cc1 (configuration not stated) | 63.1 s | 82.3 s | 100.6% |  |
| Cc1cc(C)c2c(c1O)C(NC(=O)CN1CCN(c3ccc(Cl)c(Cl)c3)CC1)C(C)(C)C2 (configuration not stated) | 108.2 s | 93.2 s | 100.1% |  |
| Cc1cc(C)c2c(c1O)C(NC(=O)CN1CCN(c3cccc(Cl)c3Cl)CC1)C(C)(C)C2 (configuration not stated) | 126.6 s | 99.2 s | 94.6% |  |
| Cc1cc(C)c2c(c1O)C(NC(=O)CN1CCN(c3ccc(F)cc3)CC1)C(C)(C)C2 (configuration not stated) | 121.4 s | 110.5 s | 96.2% |  |
